From patent US20120122951A1 (priority 2009, published 2012)

Tests used:
Mouse B16 melanoma cell [1] = assay: Quantification of the number of cells (alamarBlue), cell growth / cell toxicity; type: cell-based
Protocol: (§1) Mouse B16 melanoma cell was used. The cells were inoculated at 1×10^5 cells/well to a 6-well plate, and cultured with using a commercially available medium (trade name: EAGLE MEM, manufactured by Nissui Pharmaceutical Co., Ltd.) supplemented with 10% fetal bovine serum. The cells were cultured at 37° C., 5% CO2 and under completely saturated water-vapor atmosphere.
(§2) For determining the effect of hydroxyproline on cell growth and melanin content reduction, after culturing the cells for 24 hours, stock solutions of 4-trans-L-hydroxyproline, 4-trans-D-hydroxyproline, 4-cis-L-hydroxyproline or 4-cis-D-hydroxyproline were prepared and added in the same volume to the cells, further cultured for 3 days and used for the experiment. Meanwhile, as a control group, the same volume of water was added.
3 days after the addition of a solution of test compound, the medium was removed by suction. Eagle's-MEM containing the solution of 10% alamarBlue (trade name: BIOSOURCE, manufactured by Biosource International) was added and the reaction was allowed to occur at 37° C. Thirty minutes later, the fluorescence was measured with excitation wavelength of 544 nm and measurement wavelength of 590 nm. By having the obtained number as a relative value of the cell number, the ratio of number of cells (i.e. % number of cells) for a group added with the test compound compared to a group not added with the test compound (i.e. only the solvent was added) was calculated. Higher % number of cells indicates lower cell toxicity. When it is less than 80%, it was determined as “toxic.”
(§3) The equal amounts of 4-trans-L-hydroxyproline and 4-cis-D-hydroxyproline were mixed to produce the mixture solution of 4-trans-L-hydroxyproline and 4-cis-D-hydroxyproline, which was then provided for the experiments. Cell culture and quantification and evaluation of number of the cells and melanin were carried out in the same manner as the Examples above.
(§4) By using the mixture solution in which 4-trans-L-hydroxyproline and 4-cis-D-hydroxyproline were mixed at various ratio, test for determining cell growth and melanin content reduction was carried out. Cell culture and quantification and evaluation were carried out in the same manner as the Examples above.

Mouse B16 melanoma cell [2] = assay: Quantification of melanin (melanin content ratio, absorbance at 475 nm); type: cell-based; conditions: for effect on reducing melanin content (conclusion): 3.33 ppm up to 2690 ppm
Protocol: as §1, §2
The medium was removed by suction. After washing three times with the buffer (phosphate buffer solution 50 mM, pH 6.8), the cells were lysed by addition of 1 N NaOH, and the absorbance was measured at 475 nm. By having the obtained value as a relative value of the melanin content, the ratio of melanin content (%) for a group added with the test compound compared to a group not added with the test compound (i.e. only the solvent was added) was calculated. Lower ratio of melanin content means the higher inhibition effect on melanin production.
By using the measured value of melanin content that was obtained according to the measurement method above, percentage ratio of the melanin content was calculated by dividing the melanin content in the cells added with 4-trans-L-hydroxyproline, 4-trans-D-hydroxyproline, 4-cis-L-hydroxyproline, or 4-cis-D-hydroxyproline by the melanin content in the cells for control experiment, and the resulting value was taken as a ratio of melanin content.
as §3, §4

[3] = test system: Chinese hamster V79 cells; conditions: cited from earlier work
[4] = FIG. 2, 100 ppm single compound, duplicate

O=C(O)[C@@H]1C[C@H](O)CN1 (stereo in doubt) [4-cis-L-hydroxyproline]
number of cells when the control was represented as 100% (Mouse B16 melanoma cell [1]; FIG. 1, 3.33 ppm, 3 days): 93% | number of cells when the control was represented as 100% (Mouse B16 melanoma cell [1]; FIG. 1, 11.1 ppm, 3 days): 92% | number of cells when the control was represented as 100% (Mouse B16 melanoma cell [1]; FIG. 1, 33.3 ppm, 3 days): 84% | concentration up to which the number of cells was not significantly different from the control (no effect on survival) (Mouse B16 melanoma cell [1]; FIG. 1, 3 days): up to 33.3 ppm | number of cells when the control was represented as 100% (Mouse B16 melanoma cell [1]; FIG. 2, 33.3 ppm, duplicate): 97% | number of cells when the control was represented as 100% (Mouse B16 melanoma cell [1]; FIG. 2, 50 ppm, duplicate): 93% | number of cells when the control was represented as 100% (Mouse B16 melanoma cell [1]; [4]): 95% | number of cells when the control was represented as 100% (Mouse B16 melanoma cell [1]; FIG. 2, 333 ppm, duplicate): 89% | effect on reducing melanin content (conclusion) (Mouse B16 melanoma cell [2]; FIG. 1): effect on reducing melanin content in a concentration-dependent manner | melanin content ratio (Mouse B16 melanoma cell [2]; FIG. 1, 3.33 ppm, 3 days): 92% | melanin content ratio (Mouse B16 melanoma cell [2]; FIG. 1, 11.1 ppm, 3 days): 83% | melanin content ratio (Mouse B16 melanoma cell [2]; FIG. 1, 33.3 ppm, 3 days): 30%

O=C(O)[C@H]1C[C@H](O)CN1 (stereo in doubt) [4-trans-D-hydroxyproline]
number of cells when the control was represented as 100% (Mouse B16 melanoma cell [1]; FIG. 1, 3.33 ppm, 3 days): 98% | number of cells when the control was represented as 100% (Mouse B16 melanoma cell [1]; FIG. 1, 11.1 ppm, 3 days): 100% | number of cells when the control was represented as 100% (Mouse B16 melanoma cell [1]; FIG. 1, 33.3 ppm, 3 days): 101% | number of cells when the control was represented as 100% (Mouse B16 melanoma cell [1]; FIG. 1, 333 ppm, 3 days): 105% | number of cells when the control was represented as 100% (Mouse B16 melanoma cell [1]; FIG. 1, 2690 ppm, 3 days): 109% | effect on reducing melanin content (conclusion) (Mouse B16 melanoma cell [2]; FIG. 1): no effect on reducing melanin content | melanin content ratio (Mouse B16 melanoma cell [2]; FIG. 1, 3.33 ppm, 3 days): 97% | melanin content ratio (Mouse B16 melanoma cell [2]; FIG. 1, 11.1 ppm, 3 days): 99% | melanin content ratio (Mouse B16 melanoma cell [2]; FIG. 1, 33.3 ppm, 3 days): 99% | melanin content ratio (Mouse B16 melanoma cell [2]; FIG. 1, 333 ppm, 3 days): 101% | melanin content ratio (Mouse B16 melanoma cell [2]; FIG. 1, 2690 ppm, 3 days): 110%

O=C(O)[C@H]1C[C@@H](O)CN1 (stereo in doubt) [4-cis-D-hydroxyproline]
number of cells when the control was represented as 100% (Mouse B16 melanoma cell [1]; FIG. 1, 3.33 ppm, 3 days): 97% | number of cells when the control was represented as 100% (Mouse B16 melanoma cell [1]; FIG. 1, 11.1 ppm, 3 days): 98% | number of cells when the control was represented as 100% (Mouse B16 melanoma cell [1]; FIG. 1, 33.3 ppm, 3 days): 101% | number of cells when the control was represented as 100% (Mouse B16 melanoma cell [1]; FIG. 1, 333 ppm, 3 days): 92% | concentration up to which the number of cells was not significantly different from the control (no effect on survival) (Mouse B16 melanoma cell [1]; FIG. 1, 3 days): ≤ 333 ppm | number of cells when the control was represented as 100% (Mouse B16 melanoma cell [1]; FIG. 3, 33.3 ppm, duplicate): 93% | number of cells when the control was represented as 100% (Mouse B16 melanoma cell [1]; FIG. 3, 50 ppm, duplicate): 92% | number of cells when the control was represented as 100% (Mouse B16 melanoma cell [1]; FIG. 3, 100 ppm, duplicate): 91% | number of cells when the control was represented as 100% (Mouse B16 melanoma cell [1]; FIG. 3, 333 ppm, duplicate): 88% | effect on reducing melanin content (conclusion) (Mouse B16 melanoma cell [2]; FIG. 1): effect on reducing melanin content in a concentration-dependent manner | melanin content ratio (Mouse B16 melanoma cell [2]; FIG. 1, 3.33 ppm, 3 days): 100% | melanin content ratio (Mouse B16 melanoma cell [2]; FIG. 1, 11.1 ppm, 3 days): 98% | melanin content ratio (Mouse B16 melanoma cell [2]; FIG. 1, 33.3 ppm, 3 days): 96% | melanin content ratio (Mouse B16 melanoma cell [2]; FIG. 1, 333 ppm, 3 days): 32% | inhibition of melanin synthesis / melanin content (conclusion) (Mouse B16 melanoma cell [2]; FIG. 2, 4-cis-D starting from 33.3 ppm, mixture with same amount of 4-cis-D): prominently inhibit melanin synthesis in a concentration-dependent manner | melanin content ratio (Mouse B16 melanoma cell [2]; FIG. 2, 33.3 ppm, duplicate): 90% | melanin content ratio (Mouse B16 melanoma cell [2]; FIG. 2, 50 ppm, duplicate): 85% | melanin content ratio (Mouse B16 melanoma cell [2]; [4]): 72% | melanin content ratio (Mouse B16 melanoma cell [2]; FIG. 2, 333 ppm, duplicate): 32% | melanin content ratio (Mouse B16 melanoma cell [2]; FIG. 3, 33.3 ppm, duplicate): 92% | melanin content ratio (Mouse B16 melanoma cell [2]; FIG. 3, 50 ppm, duplicate): 84% | melanin content ratio (Mouse B16 melanoma cell [2]; FIG. 3, 100 ppm, duplicate): 75% | melanin content ratio (Mouse B16 melanoma cell [2]; FIG. 3, 333 ppm, duplicate): 37%

Oc1ccc(O)cc1 [Hydroquinone, hydroquinone]
mutagenic activity [3]: mutagenic activity

O=C(O)[C@@H]1C[C@@H](O)CN1 (stereo in doubt) [4-trans-L-hydroxyproline]
number of cells when the control was represented as 100% (Mouse B16 melanoma cell [1]; FIG. 1, 3.33 ppm, 3 days): 95% | number of cells when the control was represented as 100% (Mouse B16 melanoma cell [1]; FIG. 1, 11.1 ppm, 3 days): 103% | number of cells when the control was represented as 100% (Mouse B16 melanoma cell [1]; FIG. 1, 33.3 ppm, 3 days): 99% | number of cells when the control was represented as 100% (Mouse B16 melanoma cell [1]; FIG. 1, 333 ppm, 3 days): 101% | number of cells when the control was represented as 100% (Mouse B16 melanoma cell [1]; FIG. 1, 2690 ppm, 3 days): 94% | number of cells when the control was represented as 100% (Mouse B16 melanoma cell [1]; FIG. 2, 33.3 ppm, duplicate): 95% | number of cells when the control was represented as 100% (Mouse B16 melanoma cell [1]; FIG. 2, 50 ppm, duplicate): 100% | number of cells when the control was represented as 100% (Mouse B16 melanoma cell [1]; [4]): 98% | number of cells when the control was represented as 100% (Mouse B16 melanoma cell [1]; FIG. 2, 333 ppm, duplicate): 102% | number of cells when the control was represented as 100% (Mouse B16 melanoma cell [1]; FIG. 3, 333 ppm, duplicate): 100% | number of cells when the control was represented as 100% (Mouse B16 melanoma cell [1]; FIG. 3, 480 ppm, duplicate): 96% | number of cells when the control was represented as 100% (Mouse B16 melanoma cell [1]; FIG. 3, 666 ppm, duplicate): 102% | number of cells when the control was represented as 100% (Mouse B16 melanoma cell [1]; FIG. 3, 1332 ppm, duplicate): 99% | effect on reducing melanin content (conclusion) (Mouse B16 melanoma cell [2]; FIG. 1): no effect on reducing melanin content | melanin content ratio (Mouse B16 melanoma cell [2]; FIG. 1, 3.33 ppm, 3 days): 103% | melanin content ratio (Mouse B16 melanoma cell [2]; FIG. 1, 11.1 ppm, 3 days): 108% | melanin content ratio (Mouse B16 melanoma cell [2]; FIG. 1, 33.3 ppm, 3 days): 105% | melanin content ratio (Mouse B16 melanoma cell [2]; FIG. 1, 333 ppm, 3 days): 104% | melanin content ratio (Mouse B16 melanoma cell [2]; FIG. 1, 2690 ppm, 3 days): 107% | melanin content ratio (Mouse B16 melanoma cell [2]; FIG. 2, 33.3 ppm, duplicate): 103% | melanin content ratio (Mouse B16 melanoma cell [2]; FIG. 2, 50 ppm, duplicate): 104% | melanin content ratio (Mouse B16 melanoma cell [2]; [4]): 108% | melanin content ratio (Mouse B16 melanoma cell [2]; FIG. 2, 333 ppm, duplicate): 112% | melanin content ratio (Mouse B16 melanoma cell [2]; FIG. 3, 333 ppm, duplicate): 103% | melanin content ratio (Mouse B16 melanoma cell [2]; FIG. 3, 480 ppm, duplicate): 99% | melanin content ratio (Mouse B16 melanoma cell [2]; FIG. 3, 666 ppm, duplicate): 107% | melanin content ratio (Mouse B16 melanoma cell [2]; FIG. 3, 1332 ppm, duplicate): 102%
